Legend:
HDAC6F H216A mutant = biological target: T1, HDAC6F H216A mutant (Homo sapiens, UniProt Q9UBN7, H216A); assay: in vitro tubulin deacetylase (TDAC) assay, HDAC6F H216A mutant; type: biochemical; details: acetylated tubulin as substrate
T1 construct: made in house; host or cells: TAg Jurkat cells, transient transfection, anti-FLAG M2 immunoprecipitation
T1 sequence (Q9UBN7 1-1215 H216A): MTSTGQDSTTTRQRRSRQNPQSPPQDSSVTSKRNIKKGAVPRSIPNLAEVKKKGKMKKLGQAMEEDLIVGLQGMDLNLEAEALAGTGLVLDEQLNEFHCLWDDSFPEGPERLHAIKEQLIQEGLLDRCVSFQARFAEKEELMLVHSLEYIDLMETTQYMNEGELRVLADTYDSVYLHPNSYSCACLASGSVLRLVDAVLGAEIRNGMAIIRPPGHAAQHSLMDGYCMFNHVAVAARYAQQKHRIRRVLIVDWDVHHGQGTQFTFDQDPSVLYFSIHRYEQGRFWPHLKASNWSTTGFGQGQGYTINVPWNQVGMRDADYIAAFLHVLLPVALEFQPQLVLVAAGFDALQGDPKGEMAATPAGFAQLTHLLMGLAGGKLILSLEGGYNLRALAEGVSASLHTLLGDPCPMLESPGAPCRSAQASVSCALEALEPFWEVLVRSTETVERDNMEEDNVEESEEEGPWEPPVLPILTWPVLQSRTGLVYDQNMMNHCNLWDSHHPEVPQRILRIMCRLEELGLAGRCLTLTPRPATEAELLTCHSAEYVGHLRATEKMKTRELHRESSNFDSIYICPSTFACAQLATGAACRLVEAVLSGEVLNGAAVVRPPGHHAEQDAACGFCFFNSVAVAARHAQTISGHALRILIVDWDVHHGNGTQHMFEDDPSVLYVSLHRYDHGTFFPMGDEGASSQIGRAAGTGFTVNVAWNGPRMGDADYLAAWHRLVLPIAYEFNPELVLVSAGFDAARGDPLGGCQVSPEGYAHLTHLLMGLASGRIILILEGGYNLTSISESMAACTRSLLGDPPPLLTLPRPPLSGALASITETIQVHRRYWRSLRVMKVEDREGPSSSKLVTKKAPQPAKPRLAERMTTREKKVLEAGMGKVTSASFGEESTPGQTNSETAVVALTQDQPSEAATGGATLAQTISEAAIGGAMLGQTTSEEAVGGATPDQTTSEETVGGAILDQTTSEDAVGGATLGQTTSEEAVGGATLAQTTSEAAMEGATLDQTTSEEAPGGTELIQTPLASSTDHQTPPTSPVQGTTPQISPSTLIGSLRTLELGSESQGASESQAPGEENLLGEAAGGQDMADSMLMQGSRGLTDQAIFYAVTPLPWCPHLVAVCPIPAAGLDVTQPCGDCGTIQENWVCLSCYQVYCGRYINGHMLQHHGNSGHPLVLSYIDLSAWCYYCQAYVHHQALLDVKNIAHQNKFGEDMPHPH
Description: (§1) FLAG-tagged HDAC pBJ5 constructs were transiently transfected by electroporation with 5 μg DNA for expression of recombinant proteins (C. M. Grozinger, C. A. Hassig and S. L. Schreiber, Proc. Natl. Acad. Sci. USA, 27, 4868 (1999); and C. A. Hassig et al., Proc. Natl. Acad. Sci. USA 95, 3519 (1998)]. Cells were mock transfected without DNA or with a non-FLAG-tagged pCMV-LacZ construct as a negative control. Forty-eight hours after transfection recombinant proteins were immunoprecipitated using anti-FLAG M2 agarose affinity gel beads as described [C. A. Hassig et al., Proc. Natl. Acad. Sci. USA 95, 3519 (1998)]. Western blotting using anti-acetylated α-tubulin (1:1000) anti-tubulin (1:1000), and anti-acetylated (K9, K14) histone H3 (1:1000) antibodies was performed using standard methods (K. M. Koeller et al., Chemistry & Biology, 10 (5) (2003) pp. 397-410). […]
(§2) [^3H]Acetate-incorporated histones were isolated from butyrate-treated HeLa cells as described [J. Taunton, C. […] Immunoprecipitates were incubated with acetylated histones and HDAC activity determined by scintillation counting as described [J. Taunton, C. […] After centrifugation, the supernatant (diluted to 0.4 μg tubulin) and α-FLAG M2 agarose affinity gel beads were analyzed by western blotting with an anti-FLAG M2 antibody (1:1750) to ensure equal protein levels.

HDAC6F H611A mutant = biological target: T2, HDAC6F H611A mutant (Homo sapiens, UniProt Q9UBN7, H611A); assay: in vitro deacetylase assay with [3H]-histones, HDAC6F H611A mutant; type: biochemical; details: [3H]-labeled histones, n=3
T2 construct: made in house; host or cells: TAg Jurkat cells, transient transfection, anti-FLAG M2 immunoprecipitation
T2 sequence (Q9UBN7 whole entry H611A): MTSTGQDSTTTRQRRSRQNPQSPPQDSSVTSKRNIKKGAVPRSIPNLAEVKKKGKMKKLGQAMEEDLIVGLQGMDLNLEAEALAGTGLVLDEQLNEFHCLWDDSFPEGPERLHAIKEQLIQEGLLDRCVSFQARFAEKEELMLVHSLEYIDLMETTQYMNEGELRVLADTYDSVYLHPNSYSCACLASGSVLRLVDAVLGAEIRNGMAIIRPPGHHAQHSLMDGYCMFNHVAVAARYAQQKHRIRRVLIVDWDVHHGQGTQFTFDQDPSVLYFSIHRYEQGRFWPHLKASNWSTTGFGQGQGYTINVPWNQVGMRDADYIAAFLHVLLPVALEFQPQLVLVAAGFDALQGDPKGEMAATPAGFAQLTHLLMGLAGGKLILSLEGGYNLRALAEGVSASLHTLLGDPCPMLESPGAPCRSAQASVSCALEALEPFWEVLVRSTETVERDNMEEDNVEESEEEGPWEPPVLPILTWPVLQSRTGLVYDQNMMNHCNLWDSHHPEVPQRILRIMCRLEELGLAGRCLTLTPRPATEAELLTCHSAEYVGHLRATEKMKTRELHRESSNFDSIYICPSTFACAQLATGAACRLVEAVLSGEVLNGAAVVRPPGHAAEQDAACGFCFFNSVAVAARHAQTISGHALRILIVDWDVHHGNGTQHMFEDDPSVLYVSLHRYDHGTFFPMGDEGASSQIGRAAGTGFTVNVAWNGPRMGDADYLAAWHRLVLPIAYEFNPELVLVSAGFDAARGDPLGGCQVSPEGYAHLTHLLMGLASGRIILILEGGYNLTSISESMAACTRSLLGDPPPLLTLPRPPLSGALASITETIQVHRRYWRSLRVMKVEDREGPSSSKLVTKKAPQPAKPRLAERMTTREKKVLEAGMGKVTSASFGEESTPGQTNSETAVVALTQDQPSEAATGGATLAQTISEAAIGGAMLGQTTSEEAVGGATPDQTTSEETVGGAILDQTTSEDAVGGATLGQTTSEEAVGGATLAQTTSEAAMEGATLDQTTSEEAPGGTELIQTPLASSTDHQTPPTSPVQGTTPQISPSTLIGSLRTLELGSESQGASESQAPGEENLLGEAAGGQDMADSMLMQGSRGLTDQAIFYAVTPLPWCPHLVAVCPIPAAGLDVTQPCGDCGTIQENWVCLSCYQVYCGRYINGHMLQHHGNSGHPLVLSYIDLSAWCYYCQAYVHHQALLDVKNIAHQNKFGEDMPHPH
Description: as §1, §2

Row | Compound | inhibition of TDAC activity of HDAC6F H216A mutant (HDAC6F H216A mutant) | inhibition of HDAC activity of HDAC6F H611A mutant (HDAC6F H611A mutant)
1 | CC(/C=C/C(=O)NO)=C\[C@@H](C)C(=O)c1ccc(N(C)C)cc1 [TSA, trichostatin A, reference compound] | exhibited TDAC activity that was inhibited by tubacin and TSA | not inhibited by either TSA or tubacin
2 | O=C(CCCCCCC(=O)Nc1ccc([C@@H]2OC(c3ccc(CO)cc3)C[C@H](CSc3nc(-c4ccccc4)c(-c4ccccc4)o3)O2)cc1)NO (stereo partly shown) [tubacin] | exhibited TDAC activity that was inhibited by tubacin and TSA | not inhibited by either TSA or tubacin

— US8178579B2, “Dioxanes and uses thereof” (President and Fellows of Harvard College, priority 2001, dated 2012)
